Assay results published in the supplement of paper PMC10627819.

Experiments:
S. aureus DSM 20231 = experiment: Bliss interaction score (quartile over a dose matrix) (fitness difference); higher = more antagonism (negative = synergy)
Summary of the method: (§1)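 The Bliss score was calculated by subtracting the expected fitness, the product of single-drug values, from the observed fitness. OD595 at entry into stationary phase, over the plate's robust no-drug mean and capped at 1, served as the fitness readout. Single-drug values were inferred from combination data, and scores are summarised by quartiles across technical, biological and donor/recipient replicates.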

B. subtilis 168 = experiment: as above
Summary of the method: as §1

S. pneumoniae D39V [1] = experiment: as above
Summary of the method: as §1

S. aureus Newman [2] = experiment: as above
Summary of the method: as §1

S. aureus Newman [3] = experiment: fitness (endpoint OD595 vs no drug) (fraction); higher = more growth
Summary of the method: (§2)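 Fitness was measured as bacterial growth in 384-well plates inoculated at OD595 0.01 (30 µl, or 55 µl for S. pneumoniae). Media were TSB, LB Lennox or CY, at 37 °C. OD595 was read every 30 min for 14 h and background-subtracted against the first reading. Fitness is OD595 at the transition into stationary phase divided by the robust mean of no-drug control wells, capped at 1.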

S. pneumoniae D39V [4] = experiment: as above
Summary of the method: as §2
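For Bliss interaction score (quartile over a dose matrix) in this document: first quartile when negative (synergy) and third quartile when positive (antagonism).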

`O=C(N[C@H](CO)[C@H](O)c1ccc([N+](=O)[O-])cc1)C(Cl)Cl` [Chloramphenicol] + C/C(=C\C(=O)OCCCCCCCCC(=O)O)C[C@@H]1OC[C@H](C[C@@H]2O[C@H]2[C@@H](C)[C@H](C)O)[C@@H](O)[C@H]1O [Pseudomonic acid] was tested, and the Bliss interaction score (S. aureus DSM 20231) was 0.0264, the Bliss interaction score (B. subtilis 168) was 0.0522 and the Bliss interaction score (S. pneumoniae D39V [1]) was 0.172. For the same compound, the Bliss interaction score (S. aureus Newman [2]) was 0.0532, the fitness (S. aureus Newman [3]; first compound 0.75 µg/mL, partner 0.0313 µg/mL, one replicate) was 0.0723 and the fitness (S. aureus Newman [3]; first compound 0.75 µg/mL, partner 0.0625 µg/mL, one replicate) was 0.0337. For the same compound, the fitness (S. aureus Newman [3]; first compound 0.75 µg/mL, partner 0.125 µg/mL, one replicate) was 0.062, the fitness (S. aureus Newman [3]; first compound 1.5 µg/mL, partner 0.0313 µg/mL, one replicate) was 0.0644 and the fitness (S. aureus Newman [3]; first compound 1.5 µg/mL, partner 0.0625 µg/mL, one replicate) was 0.0381. The fitness (S. aureus Newman [3]; first compound 1.5 µg/mL, partner 0.125 µg/mL, one replicate) was 0.0655, the fitness (S. aureus Newman [3]; first compound 3 µg/mL, partner 0.0313 µg/mL, one replicate) was 0.0687 and the fitness (S. aureus Newman [3]; first compound 3 µg/mL, partner 0.0625 µg/mL, one replicate) was 0.0484. The fitness (S. aureus Newman [3]; first compound 3 µg/mL, partner 0.125 µg/mL, one replicate) was 0.0652.
With `O=C(N[C@H](CO)[C@H](O)c1ccc([N+](=O)[O-])cc1)C(Cl)Cl` [Chloramphenicol] + CN(C)c1cc(NC(=O)CNC(C)(C)C)c(O)c2c1C[C@H]1C[C@H]3[C@H](N(C)C)C(O)=C(C(N)=O)C(=O)[C@@]3(O)C(O)=C1C2=O [Tigecycline] the Bliss interaction score (S. aureus DSM 20231) was -0.0788, the Bliss interaction score (B. subtilis 168) was -0.0487 and the Bliss interaction score (S. pneumoniae D39V [1]) was -0.114. The Bliss interaction score (S. aureus Newman [2]) was -0.0583, the fitness (S. aureus Newman [3]; first compound 0.75 µg/mL, partner 0.039 µg/mL) was 0.789 and the fitness (S. aureus Newman [3]; first compound 0.75 µg/mL, partner 0.078 µg/mL) was 0.831. The fitness (S. aureus Newman [3]; first compound 0.75 µg/mL, partner 0.156 µg/mL) was 0.829, the fitness (S. aureus Newman [3]; first compound 1.5 µg/mL, partner 0.039 µg/mL) was 0.509 and the fitness (S. aureus Newman [3]; first compound 1.5 µg/mL, partner 0.078 µg/mL) was 0.559. The fitness (S. aureus Newman [3]; first compound 1.5 µg/mL, partner 0.156 µg/mL) was 0.58, the fitness (S. aureus Newman [3]; first compound 3 µg/mL, partner 0.039 µg/mL) was 0.216 and the fitness (S. aureus Newman [3]; first compound 3 µg/mL, partner 0.078 µg/mL) was 0.2. The fitness (S. aureus Newman [3]; first compound 3 µg/mL, partner 0.156 µg/mL) was 0.213.
Work on `O=C(N[C@H](CO)[C@H](O)c1ccc([N+](=O)[O-])cc1)C(Cl)Cl` [Chloramphenicol] + CN[C@@H]1[C@H](O[C@H]2[C@H](O[C@H]3[C@H](O)[C@@H](O)[C@H](N=C(N)N)[C@@H](O)[C@@H]3N=C(N)N)O[C@@H](C)[C@]2(O)C=O)O[C@@H](CO)[C@H](O)[C@H]1O [Streptomycin] yielded a Bliss interaction score (S. aureus DSM 20231) of 0.0438, a Bliss interaction score (B. subtilis 168) of 0.144 and a Bliss interaction score (S. pneumoniae D39V [1]) of -0.0647. For the same compound, the Bliss interaction score (S. aureus Newman [2]) was -0.0754, the fitness (S. aureus Newman [3]; first compound 0.75 µg/mL, partner 1 µg/mL) was 0.755 and the fitness (S. aureus Newman [3]; first compound 1.5 µg/mL, partner 1 µg/mL) was 0.537. The fitness (S. aureus Newman [3]; first compound 1.5 µg/mL, partner 2 µg/mL) was 0.465, the fitness (S. aureus Newman [3]; first compound 3 µg/mL, partner 1 µg/mL) was 0.213 and the fitness (S. aureus Newman [3]; first compound 3 µg/mL, partner 2 µg/mL) was 0.177. It also gave a fitness (S. aureus Newman [3]; first compound 3 µg/mL, partner 4 µg/mL) of 0.128.
`O=C(N[C@H](CO)[C@H](O)c1ccc([N+](=O)[O-])cc1)C(Cl)Cl` [Chloramphenicol] + O=C(O)c1cn(C2CC2)c2cc(N3CCNCC3)c(F)cc2c1=O [Ciprofloxacin] gave a Bliss interaction score (S. aureus DSM 20231) of 0.0505, a Bliss interaction score (B. subtilis 168) of 0.161 and a Bliss interaction score (S. pneumoniae D39V [1]) of -0.0621. It also gave a Bliss interaction score (S. aureus Newman [2]) of 0.126, a fitness (S. aureus Newman [3]; first compound 0.75 µg/mL, partner 0.0375 µg/mL) of 0.644 and a fitness (S. aureus Newman [3]; first compound 0.75 µg/mL, partner 0.075 µg/mL) of 0.621. For the same compound, the fitness (S. aureus Newman [3]; first compound 0.75 µg/mL, partner 0.15 µg/mL) was 0.155, the fitness (S. aureus Newman [3]; first compound 1.5 µg/mL, partner 0.0375 µg/mL) was 0.487 and the fitness (S. aureus Newman [3]; first compound 1.5 µg/mL, partner 0.075 µg/mL) was 0.496. The fitness (S. aureus Newman [3]; first compound 1.5 µg/mL, partner 0.15 µg/mL) was 0.212, the fitness (S. aureus Newman [3]; first compound 3 µg/mL, partner 0.0375 µg/mL) was 0.154 and the fitness (S. aureus Newman [3]; first compound 3 µg/mL, partner 0.075 µg/mL) was 0.182.
With `CCC[C@@H]1C[C@@H](C(=O)N[C@@H]([C@H]2O[C@H](SC)[C@H](O)[C@@H](O)[C@H]2O)[C@H](C)Cl)N(C)C1` [Clindamycin] + C/C(=C\C(=O)OCCCCCCCCC(=O)O)C[C@@H]1OC[C@H](C[C@@H]2O[C@H]2[C@@H](C)[C@H](C)O)[C@@H](O)[C@H]1O [Pseudomonic acid] the Bliss interaction score (S. aureus DSM 20231) was 0.0297, the Bliss interaction score (B. subtilis 168) was 0.0726 and the Bliss interaction score (S. pneumoniae D39V [1]) was -0.15. It also gave a Bliss interaction score (S. aureus Newman [2]) of 0.0412, a fitness (S. pneumoniae D39V [4]; first compound 0.0125 µg/mL, partner 0.03 µg/mL) of 0.78 and a fitness (S. pneumoniae D39V [4]; first compound 0.0125 µg/mL, partner 0.06 µg/mL) of 0.716. It also gave a fitness (S. pneumoniae D39V [4]; first compound 0.0125 µg/mL, partner 0.12 µg/mL) of 0.237, a fitness (S. pneumoniae D39V [4]; first compound 0.015 µg/mL, partner 0.03 µg/mL) of 0.836 and a fitness (S. pneumoniae D39V [4]; first compound 0.015 µg/mL, partner 0.06 µg/mL) of 0.69. For the same compound, the fitness (S. pneumoniae D39V [4]; first compound 0.015 µg/mL, partner 0.12 µg/mL) was 0.326, the fitness (S. pneumoniae D39V [4]; first compound 0.025 µg/mL, partner 0.03 µg/mL) was 0.499 and the fitness (S. pneumoniae D39V [4]; first compound 0.025 µg/mL, partner 0.06 µg/mL) was 0.4. It also gave a fitness (S. pneumoniae D39V [4]; first compound 0.025 µg/mL, partner 0.12 µg/mL) of 0.119, a fitness (S. pneumoniae D39V [4]; first compound 0.03 µg/mL, partner 0.03 µg/mL) of 0.703 and a fitness (S. pneumoniae D39V [4]; first compound 0.03 µg/mL, partner 0.12 µg/mL) of 0.229. For the same compound, the fitness (S. pneumoniae D39V [4]; first compound 0.05 µg/mL, partner 0.03 µg/mL) was 0.211, the fitness (S. pneumoniae D39V [4]; first compound 0.05 µg/mL, partner 0.06 µg/mL) was 0.17 and the fitness (S. pneumoniae D39V [4]; first compound 0.05 µg/mL, partner 0.12 µg/mL) was 0.0924. For the same compound, the fitness (S. pneumoniae D39V [4]; first compound 0.06 µg/mL, partner 0.06 µg/mL) was 0.281, the fitness (S. pneumoniae D39V [4]; first compound 0.06 µg/mL, partner 0.12 µg/mL) was 0.16 and the fitness (S. aureus Newman [3]; first compound 0.0312 µg/mL, partner 0.0313 µg/mL, one replicate) was 0.0504. For the same compound, the fitness (S. aureus Newman [3]; first compound 0.0312 µg/mL, partner 0.0625 µg/mL, one replicate) was 0.046, the fitness (S. aureus Newman [3]; first compound 0.0312 µg/mL, partner 0.125 µg/mL, one replicate) was 0.0438 and the fitness (S. aureus Newman [3]; first compound 0.0625 µg/mL, partner 0.0313 µg/mL, one replicate) was 0.0504. The fitness (S. aureus Newman [3]; first compound 0.0625 µg/mL, partner 0.0625 µg/mL, one replicate) was 0.0445, the fitness (S. aureus Newman [3]; first compound 0.0625 µg/mL, partner 0.125 µg/mL, one replicate) was 0.0538 and the fitness (S. aureus Newman [3]; first compound 0.125 µg/mL, partner 0.0313 µg/mL, one replicate) was 0.0456. The fitness (S. aureus Newman [3]; first compound 0.125 µg/mL, partner 0.0625 µg/mL, one replicate) was 0.0496 and the fitness (S. aureus Newman [3]; first compound 0.125 µg/mL, partner 0.125 µg/mL, one replicate) was 0.0533.
In the case of `O=C(O[C@@H]1Cc2c(O)cc(O)cc2O[C@@H]1c1cc(O)c(O)c(O)c1)c1cc(O)c(O)c(O)c1` [EGCG] + C/C(=C\C(=O)OCCCCCCCCC(=O)O)C[C@@H]1OC[C@H](C[C@@H]2O[C@H]2[C@@H](C)[C@H](C)O)[C@@H](O)[C@H]1O [Pseudomonic acid], the Bliss interaction score (S. aureus DSM 20231) is reported as -0.014, the Bliss interaction score (B. subtilis 168) is reported as -0.06 and the Bliss interaction score (S. pneumoniae D39V [1]) is reported as -0.0856. The Bliss interaction score (S. aureus Newman [2]) was 0.0163, the fitness (S. pneumoniae D39V [4]; first compound 12.5 µg/mL, partner 0.03 µg/mL) was 0.879 and the fitness (S. pneumoniae D39V [4]; first compound 12.5 µg/mL, partner 0.06 µg/mL) was 0.74. The fitness (S. pneumoniae D39V [4]; first compound 12.5 µg/mL, partner 0.12 µg/mL) was 0.494, the fitness (S. pneumoniae D39V [4]; first compound 25 µg/mL, partner 0.03 µg/mL) was 0.953 and the fitness (S. pneumoniae D39V [4]; first compound 25 µg/mL, partner 0.06 µg/mL) was 0.824. The fitness (S. pneumoniae D39V [4]; first compound 50 µg/mL, partner 0.03 µg/mL) was 0.926, the fitness (S. pneumoniae D39V [4]; first compound 50 µg/mL, partner 0.12 µg/mL) was 0.545 and the fitness (S. aureus Newman [3]; first compound 12.5 µg/mL, partner 0.0313 µg/mL, one replicate) was 0.0563. It also gave a fitness (S. aureus Newman [3]; first compound 12.5 µg/mL, partner 0.0625 µg/mL, one replicate) of 0.0491, a fitness (S. aureus Newman [3]; first compound 12.5 µg/mL, partner 0.125 µg/mL, one replicate) of 0.0477 and a fitness (S. aureus Newman [3]; first compound 25 µg/mL, partner 0.0313 µg/mL, one replicate) of 0.0468. It also gave a fitness (S. aureus Newman [3]; first compound 25 µg/mL, partner 0.0625 µg/mL, one replicate) of 0.0391, a fitness (S. aureus Newman [3]; first compound 25 µg/mL, partner 0.125 µg/mL, one replicate) of 0.0401 and a fitness (S. aureus Newman [3]; first compound 50 µg/mL, partner 0.0313 µg/mL, one replicate) of 0.0316. For the same compound, the fitness (S. aureus Newman [3]; first compound 50 µg/mL, partner 0.0625 µg/mL, one replicate) was 0.0458 and the fitness (S. aureus Newman [3]; first compound 50 µg/mL, partner 0.125 µg/mL, one replicate) was 0.0275.
